This note sets out measurements from PMC7296828 (Biochemistry, 2020).

The target in the assay is T1, Ribonuclease 6 (RNase 6, RNase K6) (Homo sapiens, UniProt Q93091).
T1 sequence (Q93091 24-150): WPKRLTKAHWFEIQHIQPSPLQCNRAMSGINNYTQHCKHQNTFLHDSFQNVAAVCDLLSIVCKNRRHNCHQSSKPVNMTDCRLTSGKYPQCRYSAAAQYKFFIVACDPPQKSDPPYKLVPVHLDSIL
Put plainly: X-ray crystal structure. It is filed as binding.

`Nc1ncnc2c1ncn2[C@@H]1O[C@H](COP(=O)(O)O)[C@@H](O)[C@H]1O` [5’-AMP] showed a Kd of 154 ± 5 µM.
